These results are taken from US20160102058A1, “FLUORO-PERHEXILINE COMPOUNDS AND THEIR THERAPEUTIC USE” (THE UNIVERSITY COURT OF THE UNIVERSITY OF ABERDEEN, priority 2013, published 2016).

A short description of series [1]: Rat oral pharmacokinetics, plasma and myocardium. The format is in vivo, male Sprague-Dawley rats. Particulars: for concentration at 1 h / concentration at 8 h: male, Sprague-Dawley, 10 mg/kg oral. As to the method: (§1) Absorption, distribution and metabolic stability were studied using an in vivo pharmacokinetics assay. Drug levels were assessed using LC/MS-MS.
(§2) Healthy male BALB/c mice (8-12 weeks old) weighing between 25 and 35 g, or Sprague-Dawley rats weighing between 250 and 300 g were procured from In-vivo Bioscience Bangalore, India. Three mice were housed in each cage. Temperature and humidity were maintained at 22±3° C. and 40-70%, respectively and illumination was controlled to give a sequence of 12 h light and 12 h dark cycle. Temperature and humidity were recorded by auto-controlled data logger system. All of the animals were provided laboratory rodent diet (Vetcare India Pvt. Ltd, Bengaluru) after the drug administration. Reverse osmosis water treated with ultraviolet light was provided ad libitum.
FPER-001 and perhexiline samples were freshly prepared each day before administration. The weighed quantity (36.5 mg) of FPER-001 for p.o. dosing was added into a mortar. […] The formulation was sonicated for 2 min to obtain a homogenous suspension.
(§3) Blood samples (approximately 60 μL) were collected from retro-orbital plexus of three mice at each time point (1, 4, 8, 24, 48, 72, 96, 120, 144, and 168 h) or of three rats at each time point (0.25, 0.5, 1, 2, 4, 8, 24, 25, 48, 72 and 73 h). Samples were collected into labeled micro-tubes, containing K2EDTA solution (20% K2EDTA solution) as an anticoagulant. Plasma was immediately harvested from the blood by centrifugation at 4000 rpm for 10 min at 4±2° C. and stored below −70° C. until bioanalysis. Immediately after collection of blood, myocardium samples were collected from each mouse at 1, 4, 8, 24, 48, 72, 96, 120, 144 and 168 h, or from each rat at 1, 8, 25 and 73 h. Myocardium samples were homogenized using ice-cold phosphate buffer saline (pH 7.4) and homogenates were stored below −70° C. until analysis. Total homogenate volume was five times the myocardium weight in mice, and three times the myocardium weight in rats.
(§4) The extraction procedures for plasma/myocardium samples and the spiked plasma calibration standards/quality control samples were identical.
(§5) A 25 μL of study sample or spiked calibration standard was added to individual pre-labeled micro-centrifuge tubes followed by 100 μL of internal standard prepared in acetonitrile (Glipizide 500 ng/mL) was added except for the blank, where 100 μL of acetonitrile was added. Samples were vortexed for 5 min. Samples were centrifuged for 10 min at a speed of 4000 rpm at 4° C. Following centrifugation, 100 μL of clear supernatant was transferred in 96-well plates and analysed using LC-MS/MS.
(§6) HPLC and MS conditions were as follows:
(§7) Non-Compartmental-Analysis tool of Phoenix WinNonlin® (Version 6.3) was used to assess the pharmacokinetic parameters. Peak plasma concentrations (Cmax) and time for the peak plasma concentrations (Tmax) were the observed values. The areas under the concentration time curve (AUClast and AUCinf) were calculated by linear trapezoidal rule. The terminal elimination rate constant (ke) was determined by regression analysis of the linear terminal portion of the log plasma concentration-time curve.
The oral absorption, distribution, and stability of FPER-001 and perhexiline were compared in the rat model as described above. Concentration was investigated for both plasma and myocardia in male Sprague-Dawley rats using an LC/MS/MS detection system as described above.

Series [2] can be described thus: Mouse oral pharmacokinetics, plasma and myocardium. Format: in vivo, male BALB/c mice. The following applies: for AUC(0-t) / Cmax: male, BALB/c, 10 mg/kg oral gavage. The method, then: as §1, §2
FPER-001 and perhexiline samples were freshly prepared each day before administration. The weighed quantity (11.19 mg) of FPER-001 for p.o. dosing was added into a mortar. […] The formulation was sonicated for 2 min to obtain a homogenous suspension. Thirty mice were administered with the oral formulation at 10 mg/kg dose through oral gavage using a 22-G oral feeding needle. The dosing volume administered was 10 mL/kg.
as §3, §4, §5, §6, §7
The oral absorption, distribution, and stability of FPER-001 and perhexiline were compared in the mouse model as described above. Maximum concentration (Cmax) and area under the curve (AUC) were investigated for both plasma and myocardia in male BALB/c mice, following 10 mg/kg oral gavage of FPER-001 or perhexiline, using an LC/MS/MS detection system as described above.

For series [3] the following is noted: elderly patients with aortic stenosis unsuitable for valve replacement; cited from earlier work.
The conditions of series [4]: in comparison with nitroglycerin; cited from earlier work.
Another series concerns the target T1, CPT-1 (Rattus norvegicus, UniProt Q63704).
T1 construct: host or cells: rat cardiac mitochondria
T1 sequence (Q63704 1-772): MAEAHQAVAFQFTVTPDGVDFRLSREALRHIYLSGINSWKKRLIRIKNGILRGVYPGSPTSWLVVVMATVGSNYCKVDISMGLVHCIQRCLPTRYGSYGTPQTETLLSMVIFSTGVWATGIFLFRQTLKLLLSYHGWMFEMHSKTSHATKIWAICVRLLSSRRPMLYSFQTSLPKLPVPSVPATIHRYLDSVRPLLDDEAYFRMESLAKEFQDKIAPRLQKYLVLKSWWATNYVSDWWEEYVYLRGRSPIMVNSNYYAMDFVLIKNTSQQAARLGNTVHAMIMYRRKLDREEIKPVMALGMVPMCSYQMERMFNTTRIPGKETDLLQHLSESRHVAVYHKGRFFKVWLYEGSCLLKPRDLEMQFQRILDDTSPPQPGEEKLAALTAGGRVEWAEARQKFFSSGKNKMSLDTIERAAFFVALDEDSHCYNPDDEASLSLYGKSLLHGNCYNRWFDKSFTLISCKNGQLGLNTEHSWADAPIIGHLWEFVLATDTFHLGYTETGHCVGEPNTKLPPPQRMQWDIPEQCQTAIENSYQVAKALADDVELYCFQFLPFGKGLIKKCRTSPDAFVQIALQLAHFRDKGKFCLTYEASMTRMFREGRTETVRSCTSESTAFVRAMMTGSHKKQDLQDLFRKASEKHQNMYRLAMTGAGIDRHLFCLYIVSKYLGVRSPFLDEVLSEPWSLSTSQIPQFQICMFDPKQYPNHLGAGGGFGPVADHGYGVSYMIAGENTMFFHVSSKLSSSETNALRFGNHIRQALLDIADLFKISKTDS
Particulars: rat cardiac mitochondria; cited from earlier work.

The test system of another series is CPT-2. The following applies: read-out: inhibition of CPT-2; cited from earlier work.
The test system of the next series is hepatocytes. The following applies: cited from earlier work.
Setting [5] is: myocardium, 1 h, read-out: Conc., myocardium, 1 h.
[6] abbreviates: myocardium, 8 h, read-out: Conc., myocardium, 8 h.
[7] abbreviates: plasma, 1 h, read-out: Conc., plasma, 1 h.
The mark [8] stands for this setting: plasma, 8 h, read-out: Conc., plasma, 8 h.
[9] abbreviates: myocardium, read-out: AUC 0-24, myocardium.
Setting [10] is: myocardium, read-out: Cmax, myocardium.
Where [11] appears, read: plasma, read-out: AUC 0-24, plasma.

Where two headings read alike, the source gives them in different places.

Broadly, the Cmax is the highest concentration seen after dosing. As for `FC1(F)CCC(C(CC2CCCCN2)C2CCCCC2)CC1` (mixture of isomers) [FPER-001, 2-(2-Cyclohexyl-2-(4,4-difluorocyclohexyl)ethyl)piperidine], the concentration at 1 h in series [1] (setting [5]) came to 5910 ng/mL; in series [1] (setting [7]) it was 386 ng/mL. For the same molecule, the concentration at 8 h in series [1] (setting [6]) came to 1290 ng/mL; in series [1] (setting [8]), 179 ng/mL. Also, the “drug concentration versus perhexiline, myocardium, 1 h” value in series [1] (oral dosing, myocardium, 1 h) is on record as approximately 3 fold. For the same molecule, the “drug concentration versus perhexiline, myocardium, 8 h” value in series [1] (oral dosing, myocardium, 8 h) is given as approximately 3.5 fold. Besides, the “drug concentration versus perhexiline, plasma, 1 h” value in series [1] (oral dosing, plasma, 1 h) is given as approximately 4 fold. For the same molecule, the “drug concentration versus perhexiline, plasma, 8 h” value in series [1] (oral dosing, plasma, 8 h) is given as approximately 6 fold. The AUC(0-t) in series [2] (setting [9]) stood at 32400 ng·h/mL; in series [2] (setting [11]), 3730 ng·h/mL. In addition, the Cmax in series [2] (setting [10]) amounted to 1680 ng/mL; in series [2] (plasma, read-out: Cmax, plasma) it was 347 ng/mL. Further, the “drug exposure versus perhexiline, myocardium” value in series [2] (oral dosing, myocardium) was approximately 18 fold. Further, in series [2] (oral dosing, myocardium), the “maximum drug concentration versus perhexiline, myocardium” value is approximately 2.5 fold. In addition, in series [2] (oral dosing, plasma), the “drug exposure versus perhexiline, plasma” value is recorded as approximately 11 fold. Moreover, the “maximum drug concentration versus perhexiline, plasma” value in series [2] (oral dosing, plasma) is recorded as approximately 3 fold.

`C1CCC(C(CC2CCCCN2)C2CCCCC2)CC1` (centres unmarked) [Perhexiline, 2-(2,2-dicyclohexylethyl)piperidine]: in series [3], the “patients with clear symptomatic improvement” value is reported as 13 out of 15. In series [4], the “reduction in the symptoms of angina” value was “greater than 50%”. The concentration at 1 h came out at 1900 ng/mL in series [1] (setting [5]) and 99.9 ng/mL in series [1] (setting [7]). In addition, the concentration at 8 h in series [1] (setting [6]) was 361 ng/mL; in series [1] (setting [8]) it was 31.4 ng/mL. Also, the IC50 was 77 µM at CPT-1 and 79 µM in the series on CPT-2. In addition, the AUC(0-t) in series [2] (setting [9]) came out at 1830 ng·h/mL; in series [2] (setting [11]) it was 350 ng·h/mL. Moreover, the Cmax in series [2] (setting [10]) worked out at 665 ng/mL; in series [2] (plasma, read-out: Cmax, plasma), 116 ng/mL. In addition, in the series with hepatocytes, the “inhibition of fatty acid oxidation in hepatocytes” value was 22 µM.
